Measurements: PMC8567874, “Metronomic delivery of orally available pemetrexed-incorporated colloidal dispersions for boosting tumor-specific immunity” (Drug Delivery, 2021)

Experiment: In situ single-pass rat intestinal perfusion
Format: in vivo
Settings: other: in situ single-pass intestinal perfusion, rat intestine, n = 4, read-out: Effective permeability (Peff)
Description: The in situ single-pass intestinal effective permeabilities (Peff) of PMX, PMX/DL(1:1), PMX/DL(1:2), PMX/DL(1:1)-CD, and PMX/DL(1:2)-CD were investigated in rats. The rats were fasted overnight for 12–16 h with free access to water before the experiment and then anesthetized by intramuscular injection of tiletamine·HCl–zolazepam mixture (1:1 [w/w]; 40 mg/kg). With the animal in the supine position, the abdominal cavity was opened using a midline longitudinal incision, and the intestine (duodenum, jejunum, and ileum) was exposed and subsequently intubated at the two ends with a polypropylene perfusion tube connected to a peristaltic pump (Harvard Apparatus, Holliston, MA, USA). After covering the entire excised area with a cotton pad soaked with warm normal saline, the cannulated intestinal segments were flushed with blank perfusion buffer at 37 °C for 30 min, at a constant flow rate of 0.5 mL/min, to remove residual intestinal contents. Then, drug solutions of PMX, PMX/DL(1:1), PMX/DL(1:2), PMX/DL(1:1)-CD, or PMX/DL(1:2)-CD (equivalent to 100 μg/mL PMX) were perfused through the intestinal lumen at 37 °C and a constant flow rate of 0.2 mL/min. After allowing 30 min to achieve a steady-state, outlet perfusate was collected every 15 min for 120 min. In addition, to assess the reliability of the perfusion study, 100 μg/mL fluorescein diluted in perfusion buffer was perfused separately under the same conditions and the collected samples were analyzed at excitation/emission wavelengths of 494/512 nm using a microplate reader (PerkinElmer multimode plate reader; PerkinElmer, Waltham, MA, USA) as a low-permeability marker. During the experiment, all animals were kept on heated pads under a heat lamp to maintain a normal body temperature. At the end of the experiment, the lengths and radii of the cannulated intestinal segments were measured, taking care to avoid stretching them. The collected samples were then filtered using 0.45-μm PVDF filters and stored at −20 °C before analyses. The outlet concentration of PMX in the perfusate was analyzed by HPLC as described above. In addition, the errors caused by rat intestinal water absorption and secretion during perfusion were corrected by the net water flux (ratio of the […] perfusate flows, Qout/Qin) and the corrected drug concentration in perfusate for each formulation was calculated based on the following equation (i.e. gravimetric method): Cout,corr = Cout × (Qout/Qin), where Cout,corr is the corrected outlet PMX concentration (µg/mL), Cout is the PMX outlet concentration (µg/mL), Qin (mL/min) is the flow rate entering the intestine, and Qout (mL/min) is the measured perfusate exit flow (net weight/15 min, assumed density of 1.0 g/mL) for the specified time interval. After correction, the Peff was calculated using the equation: Peff = Qin/A × ln(Cout,corr/Cin), where A is the intestinal area available for absorption (2πrl) based on its length (l) and radius (r).

Papp at 120 min, 100 μg/mL: 0.1 ± 0.2 ×10⁻⁶ cm/s
SMILES: O=C1OC2(c3ccc(O)cc3Oc3cc(O)ccc32)c2ccccc21 [fluorescein]
